Test results: the NIST ThermoML archive (doi:10.1016/j.jct.2015.08.013)

Assay: xn = mol fraction of the nth substance listed
Conditions: 100 kPa, Liquid; for mass density: Vibrating tube method; for viscosity: Capillary tube (Ostwald / Ubbelohde) method

O=C1CCCO1 [γ-butyrolactone] + CN1CCCC1=O
Conditions | mass density [kg/m3] | viscosity [mPa·s]
293.15 K, x2 = 0 | 1129.2 | –
293.15 K, x2 = 0.1011 | 1117.01 | –
293.15 K, x2 = 0.1484 | 1111.57 | –
293.15 K, x2 = 0.2506 | 1100.29 | –
293.15 K, x2 = 0.3027 | 1094.76 | –
293.15 K, x2 = 0.4002 | 1084.79 | –
293.15 K, x2 = 0.4953 | 1075.51 | –
293.15 K, x2 = 0.5983 | 1065.98 | –
293.15 K, x2 = 0.6977 | 1057.25 | –
293.15 K, x2 = 0.8022 | 1048.51 | –
293.15 K, x2 = 0.851 | 1044.56 | –
293.15 K, x2 = 0.9418 | 1037.29 | –
298.15 K, x2 = 0 | 1124.26 | 1.73
298.15 K, x2 = 0.1002 | – | 1.719
298.15 K, x2 = 0.1011 | 1112.14 | –
298.15 K, x2 = 0.1484 | 1106.72 | –
298.15 K, x2 = 0.2002 | – | 1.71
298.15 K, x2 = 0.2506 | 1095.51 | –
298.15 K, x2 = 0.3027 | 1090 | –
298.15 K, x2 = 0.3078 | – | 1.701
298.15 K, x2 = 0.3999 | – | 1.694
298.15 K, x2 = 0.4002 | 1080.08 | –
298.15 K, x2 = 0.4953 | 1070.84 | –
298.15 K, x2 = 0.4998 | – | 1.689
298.15 K, x2 = 0.5983 | 1061.35 | –
298.15 K, x2 = 0.6003 | – | 1.685
298.15 K, x2 = 0.6977 | 1052.68 | –
298.15 K, x2 = 0.7002 | – | 1.682
298.15 K, x2 = 0.8011 | – | 1.679
298.15 K, x2 = 0.8022 | 1043.99 | –
298.15 K, x2 = 0.851 | 1040.04 | –
298.15 K, x2 = 0.8998 | – | 1.678
298.15 K, x2 = 0.9418 | 1032.8 | –
303.15 K, x2 = 0 | 1119.33 | 1.63
303.15 K, x2 = 0.1002 | – | 1.614
303.15 K, x2 = 0.1011 | 1107.27 | –
303.15 K, x2 = 0.1484 | 1101.88 | –
303.15 K, x2 = 0.2002 | – | 1.601
303.15 K, x2 = 0.2506 | 1090.7 | –
303.15 K, x2 = 0.3027 | 1085.22 | –
303.15 K, x2 = 0.3078 | – | 1.587
303.15 K, x2 = 0.3999 | – | 1.577
303.15 K, x2 = 0.4002 | 1075.32 | –
303.15 K, x2 = 0.4953 | 1066.12 | –
303.15 K, x2 = 0.4998 | – | 1.568
303.15 K, x2 = 0.5983 | 1056.67 | –
303.15 K, x2 = 0.6003 | – | 1.559
303.15 K, x2 = 0.6977 | 1048.03 | –
303.15 K, x2 = 0.7002 | – | 1.552
303.15 K, x2 = 0.8011 | – | 1.546
303.15 K, x2 = 0.8022 | 1039.38 | –
303.15 K, x2 = 0.851 | 1035.46 | –
303.15 K, x2 = 0.8998 | – | 1.541
303.15 K, x2 = 0.9418 | 1028.25 | –
308.15 K, x2 = 0 | 1114.31 | 1.52
308.15 K, x2 = 0.1002 | – | 1.504
308.15 K, x2 = 0.1011 | 1102.38 | –
308.15 K, x2 = 0.1484 | 1097.05 | –
308.15 K, x2 = 0.2002 | – | 1.49
308.15 K, x2 = 0.2506 | 1085.98 | –
308.15 K, x2 = 0.3027 | 1080.55 | –
308.15 K, x2 = 0.3078 | – | 1.477
308.15 K, x2 = 0.3999 | – | 1.468
308.15 K, x2 = 0.4002 | 1070.75 | –
308.15 K, x2 = 0.4953 | 1061.64 | –
308.15 K, x2 = 0.4998 | – | 1.458
308.15 K, x2 = 0.5983 | 1052.28 | –
308.15 K, x2 = 0.6003 | – | 1.45
308.15 K, x2 = 0.6977 | 1043.71 | –
308.15 K, x2 = 0.7002 | – | 1.443
308.15 K, x2 = 0.8011 | – | 1.437
308.15 K, x2 = 0.8022 | 1035.14 | –
308.15 K, x2 = 0.851 | 1031.26 | –
308.15 K, x2 = 0.8998 | – | 1.433
308.15 K, x2 = 0.9418 | 1024.11 | –
313.15 K, x2 = 0 | 1109.23 | 1.42
313.15 K, x2 = 0.1002 | – | 1.404
313.15 K, x2 = 0.1011 | 1097.36 | –
313.15 K, x2 = 0.1484 | 1092.04 | –
313.15 K, x2 = 0.2002 | – | 1.391
313.15 K, x2 = 0.2506 | 1081.02 | –
313.15 K, x2 = 0.3027 | 1075.61 | –
313.15 K, x2 = 0.3078 | – | 1.379
313.15 K, x2 = 0.3999 | – | 1.37
313.15 K, x2 = 0.4002 | 1065.84 | –
313.15 K, x2 = 0.4953 | 1056.76 | –
313.15 K, x2 = 0.4998 | – | 1.361
313.15 K, x2 = 0.5983 | 1047.44 | –
313.15 K, x2 = 0.6003 | – | 1.354
313.15 K, x2 = 0.6977 | 1038.91 | –
313.15 K, x2 = 0.7002 | – | 1.348
313.15 K, x2 = 0.8011 | – | 1.344
313.15 K, x2 = 0.8022 | 1030.36 | –
313.15 K, x2 = 0.851 | 1026.5 | –
313.15 K, x2 = 0.8998 | – | 1.34
313.15 K, x2 = 0.9418 | 1019.36 | –
318.15 K, x2 = 0 | 1104.1 | 1.35
318.15 K, x2 = 0.1002 | – | 1.331
318.15 K, x2 = 0.1011 | 1092.31 | –
318.15 K, x2 = 0.1484 | 1087.03 | –
318.15 K, x2 = 0.2002 | – | 1.316
318.15 K, x2 = 0.2506 | 1076.08 | –
318.15 K, x2 = 0.3027 | 1070.71 | –
318.15 K, x2 = 0.3078 | – | 1.302
318.15 K, x2 = 0.3999 | – | 1.291
318.15 K, x2 = 0.4002 | 1061.01 | –
318.15 K, x2 = 0.4953 | 1051.99 | –
318.15 K, x2 = 0.4998 | – | 1.28
318.15 K, x2 = 0.5983 | 1042.73 | –
318.15 K, x2 = 0.6003 | – | 1.271
318.15 K, x2 = 0.6977 | 1034.27 | –
318.15 K, x2 = 0.7002 | – | 1.263
318.15 K, x2 = 0.8011 | – | 1.256
318.15 K, x2 = 0.8022 | 1025.76 | –
318.15 K, x2 = 0.851 | 1021.91 | –
318.15 K, x2 = 0.8998 | – | 1.251
318.15 K, x2 = 0.9418 | 1014.8 | –
323.15 K, x2 = 0 | 1098.88 | 1.3
323.15 K, x2 = 0.1002 | – | 1.278
323.15 K, x2 = 0.1011 | 1087.72 | –
323.15 K, x2 = 0.1484 | 1082 | –
323.15 K, x2 = 0.2002 | – | 1.261
323.15 K, x2 = 0.2506 | 1071.16 | –
323.15 K, x2 = 0.3027 | 1065.83 | –
323.15 K, x2 = 0.3078 | – | 1.245
323.15 K, x2 = 0.3999 | – | 1.232
323.15 K, x2 = 0.4002 | 1056.23 | –
323.15 K, x2 = 0.4953 | 1047.31 | –
323.15 K, x2 = 0.4998 | – | 1.219
323.15 K, x2 = 0.5983 | 1038.15 | –
323.15 K, x2 = 0.6003 | – | 1.208
323.15 K, x2 = 0.6977 | 1029.76 | –
323.15 K, x2 = 0.7002 | – | 1.198
323.15 K, x2 = 0.8011 | – | 1.189
323.15 K, x2 = 0.8022 | 1021.34 | –
323.15 K, x2 = 0.851 | 1017.51 | –
323.15 K, x2 = 0.8998 | – | 1.182
323.15 K, x2 = 0.9418 | 1010.46 | –
